Legend:
gastric mucosa = conditions: both, albino, mouse, in vivo, 3 days; for % Incidence of Ulcer Divided by 10 / Average Severity of Ulcer / Average of Ulcer Number / Number of Animals with Ulcer: po, 10 mg/kg
Protocol: The ulcerogenic liability was determined in albino mice obeying the standard method.
Animals of either sex (pregnant females were excluded) weighing 20 –25 g were divided into 8 groups of 6 animals each. The animals fasted 18 h before drug administration.
80 administered orally for three successive days to fasted animals at a dose of 10 mg kg-1 (animal […]
The control group animals were given water only with few drops of Tween 80. The animals were sacrificed by cervical dislocation and the stomach was removed, opened along the greater curvature and rinsed with saline. The gastric mucosa was examined with a magnifying lens (10x) for the presence of lesions and ero sions. The ulcer index was calculated (Table 4) and the degree of ulcerogenic effect was expressed in terms of.
1. The percentage incidence of ulcers divided by 10.
2. Average number of ulcers per stomach.
3. Average severity of ulcers.
The ulcer index is the value that resulted from the sum of the above three values. […]

[1] = tested on: acetic acid-induced abdominal writhing; experiment: acetic acid-induced abdominal writhing assay (peripheral analgesic); assay type: in vivo, mice; conditions: for % Inhibition/Protection / Writing Reflex ± SE: 10 mg/kg indomethacin mol equivalent i.p.; for Potency: % inhibition/protection compared to indomethacin; for Writing Reflex ± SE: number of writhing counted for 30 min
iNOS mRNA = conditions: 40 μg/mL; in comparison to LPS-stimulated cells only
Protocol: (§1) For this purpose, the mRNA levels of IL-6, TNF-α, and iNOS were measured using real-time qPCR (RT-qPCR).
(§2) Treatment of LPS-stimulated RAW264.7 macrophages was done with 40 µg/mL of the isolated
(§3) Evaluation of inflammatory mRNA expression levels
(§4) Inflammatory mRNA expression levels were evaluated using RT-qPCR (Applied Biosystems, CA, USA). Total RNA was extracted by lysing RAW264.7 cells using Qiazol Lysis Reagent. The extracted RNA was used to synthesize cDNA using RevertAid First Strand cDNA synthesis kit according to manufacturer’s protocol. The cDNA was then added with forward and reverse
(§5) primers, nuclease free water and maxima SYBR green mix (Thermo Fisher Scientific, MA, USA).
(§6) The inflammation-related genes of mRNA expression levels are as follows: IL-6, TNF-α, and
(§7) iNOS. All expression was normalized to GAPDH (endogenous control) and relative fold mRNA
(§8) expression levels were calculated using the comparative 2 −ΔΔCT method. The PCR reaction consists
(§9) of initiation stage at 95 °C for 10 min, after that 40 PCR cycles of d enaturation stage for 15 s at 95
(§10) °C and annealing and extension for 1 min at 60 °C.

[2] = tested on: LPS-stimulated RAW264.7 macrophages; experiment: NO production of LPS-induced RAW264.7 (Griess method); assay type: cell-based; conditions: 40 μg/mL; LPS 10 ng/mL; LPS only 22 μM, baseline 12.8 μM
TNF-α mRNA = conditions: 40 μg/mL; in comparison to LPS-stimulated cells only
Protocol: as §1, §2, §3, §4, §5, §6, §7, §8, §9, §10

IL-6 mRNA = conditions: 40 μg/mL; in comparison to LPS-stimulated cells only
Protocol: as §1, §2, §3, §4, §5, §6, §7, §8, §9, §10

SMILES | Ulcer Index (gastric mucosa) | % Incidence of Ulcer Divided by 10 (gastric mucosa) | Average Severity of Ulcer (gastric mucosa) | Average of Ulcer Number (gastric mucosa) | Number of Animals with Ulcer (gastric mucosa) | % Inhibition/Protection [1] [%] | Potency [1] [%] | Writing Reflex ± SE [1] | reduction in iNOS mRNA levels (iNOS mRNA) [%] | LPS-stimulated NO production (nitrite) [2] | reduction in TNF-α mRNA levels (TNF-α mRNA) [%] | reduction in IL-6 mRNA levels (IL-6 mRNA) [%]
C#CCOC(=O)C(C)c1ccc(CC(C)C)cc1 (centres unmarked) [Compound 3, Prop-2-yn-1-yl 2-(4-isobutylphenyl) Propanoate] | 4.33 | 3.33 | 0.67 | 0.33 | 2/6 | 71.8 | 100.0 | 11.3 ± 0.9 |  |  |  | 
Cc1ccc(-n2cc(COC(=O)C(C)c3ccc(CC(C)C)cc3)nn2)cc1 (centres unmarked) [Compound 5d, (1-(p-Tolyl)-1H-1,2,3-triazol-4-yl)methyl 2-(4-isobutylphenyl)propanoate] | 0 | 0 | 0 | 0 | 0 | 82.5 | 114.9 | 7.0 ± 1.3 | 59 | 1.45 ± 1.3 µM | 72 | 66.2
COc1ccccc1-n1cc(COC(=O)C(C)c2ccc(CC(C)C)cc2)nn1 (centres unmarked) [Compound 5e, (1-(2-Methoxyphenyl)-1H-1,2,3-triazol-4-yl)methyl 2-(4-isobutylphenyl)propanoate] | 0 | 0 | 0 | 0 | 0 | 63.3 | 88.2 | 14.7 ± 1.6 | 42 | insignificant decrease | 86 | 82

From paper PMC9965125, “New NSAID Conjugates as Potent and Selective COX-2 Inhibitors: Synthesis, Molecular Modeling and Biological Investigation” (Molecules, 2023)
